Key:
Format in all cases: cell-based
[1] = tested on: phosphorylation of MET, FRS2, ERK, AKT in RT-112; assay: Western blots of protein phosphorylation in RT-112 cells
Method: (§1) Western Blots (Figures not Shown) MKN-45 and RT-112 cells were treated in 6-well plates for 2 hours and 18 hours in the presence or absence of purified protein (rhFGF7, rhNRG1-31, or rhHGF), and/or inhibitor (Cpd. B, Cpd. A, BGJ398). Following wash with ice-cold PBS, cells were lysed with RIPA buffer (Thermo) containing phosphatase (Thermo) and proteinase (Roche) inhibitor cocktails. Total protein was quantified by bicinchoninic protein assay (Pierce). Aliquots of 20 μg were resolved by electrophoresis on NuPAGE SDS-PAGE 4-12% BIS-Tris gels before transfer to nitrocellulose membranes. Membranes were blocked for one hour at room temperature before overnight incubation at 4° C. with the following primary antibodies (source rabbit, 1:1000 final dilution): anti-phospho-Akt (Ser473), anti-phospho-MET (Tyr1234/1235), anti-phospho-MAPK/ERK(1/2) (Thr202/Tyr204), anti-AKT, anti-MAPK/Erk(1/2), and anti-α/β-Tubulin . Anti-MET was probed at 1:800 final dilution An internal antibody was used for phospho-FRS2(Y346) (1:1500 dilution). Membranes were then washed 3 times in PBS+0.1% Tween before addition of secondary antibody, IRDye 680LT goat anti-rabbit IgG , dilution 1:15000. After one hour at room temperature, membranes were washed and bands were visualized using an Odyssey Infrared Imager.

[2] = tested on: phosphorylation of MET, ERK1/2, AKT, FRS2 in MKN-45; assay: Western blots of protein phosphorylation in MKN-45 cells
Method: as §1

[3] = tested on: MKN-45 cells; assay: MKN-45 Dual Inhibition: reversal of rescue with selective inhibitors, CellTiter-Glo cell viability; settings: for activity on cell viability (reversal of rescue): MET-dependent MKN-45, rhFGF7 or rhNRG-1 250 ng/ml, 96 h, Cpd. A/Cpd. B 100 nM, BGJ398 500 nM, Lapatinib 1.5 μM, FIG. 3, FIG. 4
Method: MKN-45 Secretome screen: MKN-45 cells were plated in white, tissue-culture treated 384-well plates (Greiner) at 3000 cells/20 μl DMEM +10% FBS/well and allowed to attach overnight. Supernatant from library-transfected HEK293T/17 cells was then transferred to the MKN-45 cells at 30 μl/well using a Biomek FX liquid handler (Beckman Coulter) with pipetting speeds reduced to minimize disturbance of the HEK293T/17 monolayer. As positive controls, the purified proteins rhEGF and rhNRG1-31 (R&D Systems) were added to isolated wells on each plate for a final concentration of 150 ng/ml; supernatant from mock-transfected HEK293T/17 wells were transferred as neutral controls. Following addition of supernatants and purified protein controls, Cpd. A diluted in DMEM was added at 10 μl/well for a final assay concentration of 100 nM. After 96 hours incubation, growth was measured using the CellTiter-Glo luminescent cell viability assay system (Promega). In brief, 30 μl CellTiter-Glo reagent was added to all wells, then incubated for 15 minutes at room temperature before reading luminescence on a Viewlux plate reader (Perkin Elmer). (FIG. 1)
MKN-45 Dual Inhibition: MKN-45 cells were seeded at 3000 cells/20 μl/well in 384-well plates and incubated overnight. Solutions of rhFGF7 and rhNRG-1 were prepared in DMEM+10%FBS, then added at 30 μl/well to achieve a final concentration of 250 ng/ml (one purified protein per treatment). The following single and dual inhibition treatments were prepared in DMEM and added at […]: Cpd. A, Cpd. B, BGJ398, Lapatinib, Cpd. A and BGJ398, Cpd. B and BGJ398, Cpd. A and Lapatinib, Cpd. B and Lapatinib. Final concentrations for each compound, whether single or combined, were as follows: 100 nM for Cpd. A and Cpd. B, 500 nM for BGJ398 and 1.5 μM for Lapatinib. After 96 hours cell viability was measured by CellTiter-Glo as previously described. (FIG. 3, FIG. 4)

[4] = tested on: RT-112 cells; assay: RT-112 Dual Inhibition: reversal of rescue with selective inhibitors, CellTiter-Glo cell viability; settings: for activity on cell viability (reversal of rescue): RT-112, rhHGF or rhNRG-1 250 ng/ml, 96 h, BGJ398 100 nM, Cpd. A/Cpd. B 500 nM, Lapatinib 1.5 μM, FIG. 5, FIG. 6
Method: RT-112 Secretome screen: The basic format was identical to the MKN-45 secretome screen with slight modifications. RT-112 cells were plated in EMEM+10% in white, tissue-culture treated 384-well plates at 1000 cells/20 μl/well and allowed to attach overnight. Supernatant from library-transfected HEK293T/17 cells was transferred as described above for the MKN-45 secretome screen. Purified proteins rhNRG1-31 and rhTGFα were added as positive controls, at a final concentration of 150 ng/ml. Following addition of supernatants and purified protein controls, BGJ398 diluted in DMEM was added at 10 μl/well for a final assay concentration of 100 nM. Cell viability was measured after 72 hours using CellTiter-Glo as described above. (FIG. 2)
RT-112 Dual Inhibition: The format for the RT-112 dual inhibition experiment was similar to that described for MKN-45 with the following modifications. RT-112 cells were plated at 1000 cells/20 μl/well. Solutions of rhHGF and rhNRG-1 were added to achieve a final concentration of 250 ng/ml. Single and dual inhibition conditions were prepared as follows: BGJ398, Cpd. A, Cpd. B, Lapatinib, BGJ398 and Cpd. A, BGJ398 and Cpd. B, BGJ398 and Lapatinib. Final concentrations for each compound, whether single or combined, were as follows: 100nM for BGJ398, 500 nM for Cpd. A and Cpd. B, and 1.5 μM for Lapatinib. After 96 hours cell viability was measured by CellTiter-Glo as previously described. (FIG. 5, FIG. 6).

C/C(=N\NC(N)=O)c1ccc2ncc(Cc3cc4cccnc4cc3F)n2n1 [Cpd. A, (E)-2-(1-(3-((7-fluoroquinolin-6-yl)methyl)imidazo[1,2-b]pyridazin-6-yl)ethylidene)hydrazinecarboxamide]
prevention of HGF rescue of ERK phosphorylation ([1]; RT-112, BGJ398 plus HGF, simultaneous addition): prevented this rescue effect | MET phosphorylation ([1]; RT-112, absence of ligands): specifically inhibited MET phosphorylation | effect on phosphorylation of several proteins (MET, ERK1/2, AKT, FRS2) ([2]; MKN-45, absence of added ligands): profound effect | activity on cell viability (reversal of rescue) [3]: active | activity on cell viability (reversal of rescue) [4]: not sufficient

CS(=O)(=O)CCNCc1ccc(-c2ccc3ncnc(Nc4ccc(OCc5cccc(F)c5)c(Cl)c4)c3c2)o1 [lapatinib, reference compound]
sensitivity of NRG1-caused restoration of ERK phosphorylation to inhibitor ([1]; RT-112): lapatinib-sensitive | reversal of FGF7 rescue effect on FRS2 and ERK1/2 phosphorylation ([2]; MKN-45, MET inhibitor plus FGF7): not | sensitivity of NRG1-evoked phosphorylation re-activation to inhibitor ([2]; MKN-45, MET inhibitor plus NRG1): specifically sensitive | activity on cell viability (reversal of rescue) [3]: not sufficient | reversal of ligand-mediated rescue of proliferation ([3]; MKN-45 in presence of MET inhibitor Cpd. A or Cpd. B, FIGS. 3, 4): reversed rescue by NRG1 | activity on cell viability (reversal of rescue) [4]: not sufficient

HGF: Hepatocyte Growth Factor
ERK phosphorylation after addition of ligand ([1]; RT-112, in the presence of BGJ398): restored ERK phosphorylation | rescue of cell proliferation by recombinant ligand ([4]; RT-112 in presence of FGFR inhibitor): reproduce the rescue effects

B1: FGF7: Fibroblast Growth Factor 7 (activator of FGFR) (protein, UniProt P21781 32-194, looked up)
Fibroblast growth factor 7: CNDMTPEQMATNVNCSSPERHTRSYDYMEGGDIRVRRLFCRTQWYLRIDKRGKVKGTQEMKNNYNIMEIRTVAVGIVAIKGVESEFYLAMNKEGKLYAKKECNEDCNFKELILENHYNTYASAKWTHNGGEMFVALNQKGIPVRGKKTKKEQKTAHFLPMAIT
AKT phosphorylation after addition of ligand ([2]; MKN-45, MET inhibited): no or minimal effect on AKT phosphorylation | ERK1/2 phosphorylation after addition of ligand ([2]; MKN-45, MET inhibited): partially re-activated ERK1/2 phosphorylation | FRS2 phosphorylation after addition of ligand ([2]; MKN-45, MET inhibited): re-activated FRS2 phosphorylation

From patent US20150051210A1, “Tyrosine Kinase Inhibitor Combinations and their Use” (Novartis AG, priority 2012, published 2015)
